pIC50: −log10 of the molar value.

The experiment addresses T1, human PDE5 (Homo sapiens, UniProt O76074).
T1 construct: from tissue; host or cells: platelets from fresh blood of human donors (lysate, 10,000 g supernatant)
Kind of experiment: Inhibition of the type 5 phosphodiesterase (PDE5) activity, modified SPA test with platelet lysate. It is filed as biochemical. To be noted: PDE5 from human platelet lysate, 0.5 μM cGMP. The method, then:
Method for Measuring Inhibition of the Type 5 Phosphodiesterase (PDE5) Activity:
As a source for human PDE5, platelets are used. For that purpose, 150 ml fresh blood from human donors anticoagulated with citrate [final concentration 0.3% (w/v)] is centrifuged at 200 g for 10 min to obtain the so-called platelet-rich-plasma (PRP) as a supernatant. 1/10 volume of ACD solution (85 mM Na3-citrate, 111 mM D-glucose, 71 mM citric acid, pH 4.4) is added to 9/10 volume of PRP. After centrifugation (1,400 g, 10 min) the cell pellet is resuspended in 3 ml homogenization buffer (NaCl 140 mM, KCl 3.8 mM, EGTA (ethylene glycol tetraacetic acid) 1 mM, MgCl2 1 mM, Tris-HCl 20 mM, beta-mercaptoethanol 1 mM, pH 8.2) plus protease-inhibitor mix giving rise to the final concentrations of 0.5 mM Pefablock (Roche), 10 μM Leupeptin, 5 μM Trypsininhibitor, 2 mM Benzamidin and 10 μM Pepstatin A. The suspension is sonified and thereafter centrifuged for 15 min at 10,000 g. The resulting supernatant (platelet lysate) is used for enzymatic testings.
PDE5A1 activity is inhibited by the compounds of the invention in a modified SPA (scintillation proximity assay) test, supplied by Amersham Biosciences (see procedural instructions “phosphodiesterase [3H]cAMP SPA enzyme assay, code TRKQ 7090”), carried out in 96-well microtitre plates (MTP's). The test volume is 100 μl and contains 20 mM Tris buffer (pH 7.4), 0.1 mg of BSA (bovine serum albumin)/ml, 5 mM Mg^2+, 1 μM motapizone, 10 nM PDE2 inhibitor 2-(3,4-dimethoxybenzyl)-7-[(1R,2R)-2-hydroxy-1-(2-phenylethyl)propyl]-5-methylimidazo[5,1-f][1,2,4]triazin-4(3H)-one, 0.5 μM cGMP (cyclic guanosine monophosphate) (including about 50,000 cpm of [3H]cGMP as a tracer), 1 μl of the respective compound dilution in dimethylsulfoxide (DMSO) and sufficient PDE5-containing platelet lysat (10,000×g supernatant, see above) to ensure that 10-20 wt % of the cGMP is converted under the said experimental conditions. […] After a preincubation of 5 min at 37° C., the reaction is started by adding the substrate (cGMP) and the assay is incubated for a further 15 min; after that, it is stopped by adding SPA beads (50 μl). In accordance with the manufacturer's instructions, the SPA beads had previously been resuspended in water, but are then diluted 1:3 (v/v) in water; the diluted solution also contains 3 mM […] (IBMX) to ensure a complete PDE activity stop. After the beads have been sedimented (>30 min), the MTP's are analyzed in commercially available luminescence detection de-vices. The corresponding IC50 values of the compounds for the inhibition of PDE activity are deter-mined from the concentration-effect curves by means of non-linear regression.
The pIC50 is the IC50 on a negative log10 scale, so that one unit is a factor of ten. Read a low pIC50 as a large IC50. The compound `COCC(=O)N1CC(NC(=O)c2c[nH]c3c(-c4c(OCC5CC5)ccc5c4OCO5)ncnc23)C1` [Example 41, 4-(5-Cyclopropylmethoxy-benzo[1,3]dioxol-4-yl)-5H-pyrrolo[3,2-d]pyrimidine-7-carboxylic acid [1-(2-methoxy-ethanoyl)-azetidin-3-yl]amide] showed a pIC50 of 9.05. For `CCOC(=O)N1CC(NC(=O)c2c[nH]c3c(-c4c(OCC5CC5)ccc5c4OCO5)ncnc23)C1` [Example 42, 3-({1-[4-(5-Cyclopropylmethoxy-benzo[1,3]dioxol-4-yl)-5H-pyrrolo[3,2-d]pyrimidin-7-yl]-methanoyl}-amino)-azetidine-1-carboxylic acid ethyl ester], the pIC50 was 9.72. Compound `O=CN1CCC(NC(=O)c2c[nH]c3c(-c4c(OCC5CC5)ccc5c4OCO5)ncnc23)CC1` [Example 43, 4-(5-Cyclopropylmethoxy-benzo[1,3]dioxol-4-yl)-5H-pyrrolo[3,2-d]pyrimidine-7-carboxylic acid (1-formyl-piperidin-4-yl)-amide] gave a pIC50 of 9.55.

The compound `CCC(=O)N1CCC[C@H](NC(=O)c2c[nH]c3c(-c4c(OCC5CC5)ccc5c4OCO5)ncnc23)C1` [Example 44, 4-(5-Cyclopropylmethoxy-benzo[1,3]dioxol-4-yl)-5H-pyrrolo[3,2-d]pyrimidine-7-carboxylic acid ((S)-1-propionyl-piperidin-3-yl)-amide] showed a pIC50 of 9.10. For the compound `COCC(=O)N1CCC[C@H](NC(=O)c2c[nH]c3c(-c4c(OCC5CC5)ccc5c4OCO5)ncnc23)C1` [Example 45, 4-(5-Cyclopropylmethoxy-benzo[1,3]dioxol-4-yl)-5H-pyrrolo[3,2-d]pyrimidine-7-carboxylic acid [(S)-1-(2-methoxy-ethanoyl)-piperidin-3-yl]amide], the pIC50 is 8.81. On to `CC(=O)N1CCC[C@H](NC(=O)c2c[nH]c3c(-c4c(OCC5CC5)ccc5c4OCO5)ncnc23)C1` [Example 46, 4-(5-Cyclopropylmethoxy-benzo[1,3]dioxol-4-yl)-5H-pyrrolo[3,2-d]pyrimidine-7-carboxylic acid ((S)-1-acetyl-piperidin-3-yl)-amide], for which the pIC50 is 8.86. Take `COCC(=O)N1CCC[C@@H](NC(=O)c2c[nH]c3c(-c4c(OCC5CC5)ccc5c4OCO5)ncnc23)C1` [Example 48, 4-(5-Cyclopropylmethoxy-benzo[1,3]dioxol-4-yl)-5H-pyrrolo[3,2-d]pyrimidine-7-carboxylic acid [(R)-1-(2-methoxy-ethanoyl)-piperidin-3-yl]amide]: the pIC50 is 9.37. The compound `CC(=O)N1CCC[C@@H](NC(=O)c2c[nH]c3c(-c4c(OCC5CC5)ccc5c4OCO5)ncnc23)C1` [Example 49, 4-(5-Cyclopropylmethoxy-benzo[1,3]dioxol-4-yl)-5H-pyrrolo[3,2-d]pyrimidine-7-carboxylic acid ((R)-1-acetyl-piperidin-3-yl)-amide] showed a pIC50 of 9.47. `COCC(=O)N[C@H]1CC[C@H](NC(=O)c2c[nH]c3c(-c4c(OCC5CC5)ccc5c4OCO5)ncnc23)CC1` [Example 50, trans-4-(5-Cyclopropylmethoxy-benzo[1,3]dioxol-4-yl)-5H-pyrrolo[3,2-d]pyrimidine-7-carboxylic acid [4-(2-methoxy-acetylamino)-cyclohexyl]-amide] gave a pIC50 of 9.85. Turning to `COc1ccc(-c2ncnc3c(C(=O)N[C@H]4CC[C@H](NC(C)=O)CC4)c[nH]c23)c(OCC2CC2)c1` [Example 51, trans-4-(2-Cyclopropylmethoxy-4-methoxy-phenyl)-5H-pyrrolo[3,2-d]pyrimidine-7-carboxylic acid (4-acetylamino-cyclohexyl)-amide], the pIC50 is 9.31. The same measure for `COc1ccc(-c2ncnc3c(C(=O)N[C@H]4CC[C@H](NC(=O)C5CC5)CC4)c[nH]c23)c(OCC2CC2)c1` [Example 52, trans-4-(2-Cyclopropylmethoxy-4-methoxy-phenyl)-5H-pyrrolo[3,2-d]pyrimidine-7-carboxylic acid [4-(cyclopropanecarbonyl-amino)cyclohexyl]-amide]: 9.52.
